5 molecules from ChEMBL document CHEMBL5715260, “Selectivity Literature for EUbOPEN Chemogenomic Library” (2024) can be followed below.

Structures are written as SMILES. A value given as a limit tells only on which side of the number the result lay.

The target of test [1] is T1, Nuclear receptor subfamily 2 group C member 1 (Homo sapiens) (UniProt P13056).
T1 sequence (whole entry): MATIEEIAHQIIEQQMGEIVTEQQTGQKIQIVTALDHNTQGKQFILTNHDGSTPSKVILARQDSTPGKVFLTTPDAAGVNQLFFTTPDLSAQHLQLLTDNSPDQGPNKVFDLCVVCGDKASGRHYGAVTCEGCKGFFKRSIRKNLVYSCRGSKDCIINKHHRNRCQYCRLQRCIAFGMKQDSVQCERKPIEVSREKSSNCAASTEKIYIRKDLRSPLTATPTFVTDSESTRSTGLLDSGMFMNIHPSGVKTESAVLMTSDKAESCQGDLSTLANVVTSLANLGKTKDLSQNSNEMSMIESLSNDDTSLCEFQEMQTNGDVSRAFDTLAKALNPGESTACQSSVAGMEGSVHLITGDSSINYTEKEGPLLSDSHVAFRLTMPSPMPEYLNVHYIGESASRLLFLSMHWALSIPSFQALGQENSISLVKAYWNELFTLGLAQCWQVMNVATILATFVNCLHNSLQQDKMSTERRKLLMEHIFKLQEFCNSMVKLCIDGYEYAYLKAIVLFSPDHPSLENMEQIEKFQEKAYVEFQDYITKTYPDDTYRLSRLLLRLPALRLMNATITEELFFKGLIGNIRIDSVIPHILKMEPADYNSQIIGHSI
The test is described as follows: Selectivity interaction (Reporter gene assay) EUB0000188b NR2C1. Further details: recommended concentration 1 uM. Background: Reporter assays use an easily measured gene product as a stand-in for the process of interest.

Test [2] concerns the target T2, Hepatocyte nuclear factor 4-alpha (Homo sapiens) (UniProt P41235).
T2 sequence (whole entry): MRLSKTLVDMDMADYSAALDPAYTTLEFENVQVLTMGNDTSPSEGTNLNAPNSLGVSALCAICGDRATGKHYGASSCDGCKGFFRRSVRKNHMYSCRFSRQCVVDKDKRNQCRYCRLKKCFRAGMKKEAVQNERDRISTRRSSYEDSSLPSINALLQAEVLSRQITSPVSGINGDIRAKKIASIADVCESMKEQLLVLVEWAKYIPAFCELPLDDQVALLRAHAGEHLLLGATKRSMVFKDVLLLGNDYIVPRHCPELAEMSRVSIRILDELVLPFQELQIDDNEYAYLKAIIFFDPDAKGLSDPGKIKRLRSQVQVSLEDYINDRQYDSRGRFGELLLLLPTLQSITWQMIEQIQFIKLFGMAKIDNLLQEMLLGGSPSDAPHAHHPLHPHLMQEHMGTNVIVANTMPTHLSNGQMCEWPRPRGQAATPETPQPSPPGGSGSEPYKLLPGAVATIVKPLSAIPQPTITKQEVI
The test is described as follows: Selectivity interaction (Reporter gene assay) EUB0000188b HNF4A. On the set-up: recommended concentration 1 uM.

The target of test [3] is Nuclear receptor subfamily 4immunitygroup A member 1 (Homo sapiens) (UniProt P22736). The test is described as follows: Selectivity interaction (Reporter gene assay) EUB0000188b NR4A1. On the set-up: recommended concentration 1 uM.
Test [4] deals with Steroidogenic factor 1 (Homo sapiens) (UniProt Q13285). The test is described as follows: Selectivity interaction (Reporter gene assay) EUB0000188b NR5A1. On the set-up: recommended concentration 1 uM.
In test [5] the target is Nuclear receptor subfamily 2 group E member 1 (Homo sapiens) (UniProt Q9Y466). The test is described as follows: Selectivity interaction (Reporter gene assay) EUB0000188b NR2E1. Further details: recommended concentration 1 uM.
In test [6] the target is T3, Alpha trans-inducing protein (Human alphaherpesvirus 1) (UniProt A0A5J6DW59). As to the kind of experiment: Selectivity interaction (Reporter gene assay) EUB0000188b UL48. Further details: recommended concentration 1 uM.
Test [7] addresses T4, Retinoic acid receptor RXR-alpha (Homo sapiens) (UniProt P19793).
T4 sequence (whole entry): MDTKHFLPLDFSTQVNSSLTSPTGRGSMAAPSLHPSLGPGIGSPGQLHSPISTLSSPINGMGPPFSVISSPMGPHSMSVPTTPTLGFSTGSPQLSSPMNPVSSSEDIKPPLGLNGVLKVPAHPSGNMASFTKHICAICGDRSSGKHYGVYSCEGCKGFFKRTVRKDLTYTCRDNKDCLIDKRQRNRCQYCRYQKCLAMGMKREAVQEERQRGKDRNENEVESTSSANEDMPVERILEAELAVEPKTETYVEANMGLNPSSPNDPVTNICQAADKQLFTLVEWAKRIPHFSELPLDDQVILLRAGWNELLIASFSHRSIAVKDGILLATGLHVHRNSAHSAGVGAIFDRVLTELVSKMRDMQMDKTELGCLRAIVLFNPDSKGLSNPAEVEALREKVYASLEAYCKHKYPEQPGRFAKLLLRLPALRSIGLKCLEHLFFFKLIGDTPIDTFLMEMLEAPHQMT
The test is described as follows: Selectivity interaction (Reporter gene assay) EUB0000188b RXRA. On the set-up: recommended concentration 1 uM. Particulars: reference bexarotene 1 uM, Selectivity number of off-targets 0.0, Selectivity number of targets 1.0, Source Knowledge inhouse.

Test [8] deals with T1, Nuclear receptor subfamily 2 group C member 1 (Homo sapiens). The test is described as follows: Selectivity interaction (Reporter gene assay) EUB0000183b NR2C1. On the set-up: recommended concentration 3 uM.
Test [9] deals with T2, Hepatocyte nuclear factor 4-alpha (Homo sapiens). The test is described as follows: Selectivity interaction (Reporter gene assay) EUB0000183b HNF4A. On the set-up: recommended concentration 3 uM.
Test [10] has as its target Nuclear receptor subfamily 4immunitygroup A member 1 (Homo sapiens) (UniProt P22736). As to the kind of experiment: Selectivity interaction (Reporter gene assay) EUB0000183b NR4A1. On the set-up: recommended concentration 3 uM.
Test [11] has as its target T3, Alpha trans-inducing protein (Human alphaherpesvirus 1). As to the kind of experiment: Selectivity interaction (Reporter gene assay) EUB0000183b UL48. On the set-up: recommended concentration 3 uM.
Test [12] deals with Nuclear receptor subfamily 2 group E member 1 (Homo sapiens) (UniProt Q9Y466). The test is described as follows: Selectivity interaction (Reporter gene assay) EUB0000183b NR2E1. On the set-up: recommended concentration 3 uM.
The target of test [13] is T4, Retinoic acid receptor RXR-alpha (Homo sapiens). The test is described as follows: Selectivity interaction (Reporter gene assay) EUB0000183b RXRA. Further details: recommended concentration 3 uM.
Test [14] has as its target Steroidogenic factor 1 (Homo sapiens) (UniProt Q13285). As to the kind of experiment: Selectivity interaction (Reporter gene assay) EUB0000183b NR5A1. On the set-up: recommended concentration 3 uM.
The target in test [15] is Muscarinic acetylcholine receptor M2 (Homo sapiens) (UniProt P08172). As to the kind of experiment: Selectivity interaction (Custom Panel of enzymes and receptors (Eurofins)) EUB0000234b CHRM2. On the set-up: recommended concentration 1 uM. Particulars: at 10 µM.
The next test deals with Mu-type opioid receptor (Homo sapiens, UniProt P35372). As to the kind of experiment: Selectivity interaction (Custom Panel of enzymes and receptors (Eurofins)) EUB0000234b OPRM1. On the set-up: recommended concentration 1 uM. The following applies: at 10 µM.
Test [16] concerns the target Alpha-2B adrenergic receptor (Homo sapiens) (UniProt P18089). The test is described as follows: Selectivity interaction (Custom Panel of enzymes and receptors (Eurofins)) EUB0000234b ADRA2B. On the set-up: recommended concentration 1 uM. The following applies: at 10 µM.
The target in test [17] is Histamine H3 receptor (Homo sapiens) (UniProt Q9Y5N1). As to the kind of experiment: Selectivity interaction (Custom Panel of enzymes and receptors (Eurofins)) EUB0000234b HRH3. Further details: recommended concentration 1 uM. Particulars: at 10 µM.
Test [18] concerns the target Nuclear receptor subfamily 2 group E member 1 (Homo sapiens) (UniProt Q9Y466). The test is described as follows: Selectivity interaction (Reporter gene assay) EUB0000190b NR2E1. On the set-up: recommended concentration 1 uM.
Test [19] addresses Nuclear receptor subfamily 4immunitygroup A member 1 (Homo sapiens) (UniProt P22736). As to the kind of experiment: Selectivity interaction (Reporter gene assay) EUB0000190b NR4A1. On the set-up: recommended concentration 1 uM.
For test [20], the target named is T3, Alpha trans-inducing protein (Human alphaherpesvirus 1). The test is described as follows: Selectivity interaction (Reporter gene assay) EUB0000190b UL48. On the set-up: recommended concentration 1 uM.
The target of test [21] is T1, Nuclear receptor subfamily 2 group C member 1 (Homo sapiens). The test is described as follows: Selectivity interaction (Reporter gene assay) EUB0000190b NR2C1. Further details: recommended concentration 1 uM.
In test [22] the target is T2, Hepatocyte nuclear factor 4-alpha (Homo sapiens). The test is described as follows: Selectivity interaction (Reporter gene assay) EUB0000190b HNF4A. On the set-up: recommended concentration 1 uM.
Test [23] deals with T4, Retinoic acid receptor RXR-alpha (Homo sapiens). The test is described as follows: Selectivity interaction (Reporter gene assay) EUB0000190b RXRA. On the set-up: recommended concentration 1 uM. The following applies: reference bexarotene 1 uM, Selectivity number of off-targets 0.0, Selectivity number of targets 1.0, Source Knowledge inhouse.
Test [24] concerns the target Steroidogenic factor 1 (Homo sapiens) (UniProt Q13285). As to the kind of experiment: Selectivity interaction (Reporter gene assay) EUB0000190b NR5A1. On the set-up: recommended concentration 1 uM.
The target of test [25] is Nuclear receptor subfamily 2 group E member 1 (Homo sapiens) (UniProt Q9Y466). As to the kind of experiment: Selectivity interaction (Reporter gene assay) EUB0000184b NR2E1. Further details: recommended concentration 1 uM.
The target of test [26] is T2, Hepatocyte nuclear factor 4-alpha (Homo sapiens). As to the kind of experiment: Selectivity interaction (Reporter gene assay) EUB0000184b HNF4A. Further details: recommended concentration 1 uM.
For test [27], the target named is Nuclear receptor subfamily 4immunitygroup A member 1 (Homo sapiens) (UniProt P22736). As to the kind of experiment: Selectivity interaction (Reporter gene assay) EUB0000184b NR4A1. On the set-up: recommended concentration 1 uM.
For test [28], the target named is T4, Retinoic acid receptor RXR-alpha (Homo sapiens). The test is described as follows: Selectivity interaction (Reporter gene assay) EUB0000184b RXRA. On the set-up: recommended concentration 1 uM.
In test [29] the target is Steroidogenic factor 1 (Homo sapiens) (UniProt Q13285). As to the kind of experiment: Selectivity interaction (Reporter gene assay) EUB0000184b NR5A1. Further details: recommended concentration 1 uM.
In test [30] the target is T3, Alpha trans-inducing protein (Human alphaherpesvirus 1). As to the kind of experiment: Selectivity interaction (Reporter gene assay) EUB0000184b UL48. On the set-up: recommended concentration 1 uM.
The target in test [31] is T1, Nuclear receptor subfamily 2 group C member 1 (Homo sapiens). As to the kind of experiment: Selectivity interaction (Reporter gene assay) EUB0000184b NR2C1. On the set-up: recommended concentration 1 uM.

Chain of Nuclear receptor subfamily 2 group E member 1 (Homo sapiens) (Q9Y466 whole entry): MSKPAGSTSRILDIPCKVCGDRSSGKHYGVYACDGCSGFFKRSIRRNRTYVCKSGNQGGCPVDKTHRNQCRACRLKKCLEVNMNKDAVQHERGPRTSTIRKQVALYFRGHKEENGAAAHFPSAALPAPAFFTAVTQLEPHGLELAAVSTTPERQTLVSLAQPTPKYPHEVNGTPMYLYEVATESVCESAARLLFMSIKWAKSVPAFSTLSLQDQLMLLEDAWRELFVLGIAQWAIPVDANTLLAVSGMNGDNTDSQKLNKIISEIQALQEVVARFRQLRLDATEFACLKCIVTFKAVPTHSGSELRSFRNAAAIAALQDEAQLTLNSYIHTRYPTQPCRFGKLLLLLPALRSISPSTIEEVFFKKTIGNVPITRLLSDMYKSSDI
Chain of Steroidogenic factor 1 (Homo sapiens) (Q13285 whole entry): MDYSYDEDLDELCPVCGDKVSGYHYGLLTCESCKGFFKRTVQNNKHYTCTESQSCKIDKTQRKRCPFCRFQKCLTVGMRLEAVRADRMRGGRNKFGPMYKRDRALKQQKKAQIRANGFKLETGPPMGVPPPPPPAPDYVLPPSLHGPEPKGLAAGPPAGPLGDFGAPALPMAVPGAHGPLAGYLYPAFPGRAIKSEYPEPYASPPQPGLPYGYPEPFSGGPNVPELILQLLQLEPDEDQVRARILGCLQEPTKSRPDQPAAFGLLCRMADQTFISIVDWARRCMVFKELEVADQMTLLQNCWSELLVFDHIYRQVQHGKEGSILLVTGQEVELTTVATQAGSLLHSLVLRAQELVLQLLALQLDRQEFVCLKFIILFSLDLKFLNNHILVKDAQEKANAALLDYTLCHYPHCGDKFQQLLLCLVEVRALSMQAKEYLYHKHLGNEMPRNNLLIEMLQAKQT
T3 sequence (A0A5J6DW59 as listed by the source): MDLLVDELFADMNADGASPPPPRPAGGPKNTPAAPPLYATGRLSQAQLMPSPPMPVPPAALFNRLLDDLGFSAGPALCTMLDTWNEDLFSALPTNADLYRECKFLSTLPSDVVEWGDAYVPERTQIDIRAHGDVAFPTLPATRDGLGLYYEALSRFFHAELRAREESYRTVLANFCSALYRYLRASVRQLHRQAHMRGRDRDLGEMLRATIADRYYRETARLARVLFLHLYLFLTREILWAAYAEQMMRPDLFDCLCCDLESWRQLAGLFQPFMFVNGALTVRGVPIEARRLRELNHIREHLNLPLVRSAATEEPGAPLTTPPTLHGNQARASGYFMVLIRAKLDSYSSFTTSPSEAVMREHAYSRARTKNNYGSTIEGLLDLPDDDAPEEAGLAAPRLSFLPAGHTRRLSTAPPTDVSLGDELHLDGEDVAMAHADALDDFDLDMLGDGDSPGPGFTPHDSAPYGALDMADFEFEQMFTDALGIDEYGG
Chain of Nuclear receptor subfamily 4immunitygroup A member 1 (Homo sapiens) (P22736 whole entry): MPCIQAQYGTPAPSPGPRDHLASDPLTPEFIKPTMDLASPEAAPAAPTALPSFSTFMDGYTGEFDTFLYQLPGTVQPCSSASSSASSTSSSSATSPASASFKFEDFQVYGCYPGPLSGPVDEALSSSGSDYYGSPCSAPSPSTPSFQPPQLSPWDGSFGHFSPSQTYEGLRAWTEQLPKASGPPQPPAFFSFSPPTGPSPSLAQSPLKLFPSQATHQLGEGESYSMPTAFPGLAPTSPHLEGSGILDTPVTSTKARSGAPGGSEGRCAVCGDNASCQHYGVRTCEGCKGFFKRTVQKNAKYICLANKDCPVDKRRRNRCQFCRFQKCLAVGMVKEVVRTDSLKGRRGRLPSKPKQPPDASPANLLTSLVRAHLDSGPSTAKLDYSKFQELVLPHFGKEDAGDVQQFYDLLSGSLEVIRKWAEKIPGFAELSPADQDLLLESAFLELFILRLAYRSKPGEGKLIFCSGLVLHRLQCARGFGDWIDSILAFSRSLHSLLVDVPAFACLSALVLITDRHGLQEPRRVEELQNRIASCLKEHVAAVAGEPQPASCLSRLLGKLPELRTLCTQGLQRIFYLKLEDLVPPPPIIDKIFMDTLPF
Chain of Muscarinic acetylcholine receptor M2 (Homo sapiens) (P08172 whole entry): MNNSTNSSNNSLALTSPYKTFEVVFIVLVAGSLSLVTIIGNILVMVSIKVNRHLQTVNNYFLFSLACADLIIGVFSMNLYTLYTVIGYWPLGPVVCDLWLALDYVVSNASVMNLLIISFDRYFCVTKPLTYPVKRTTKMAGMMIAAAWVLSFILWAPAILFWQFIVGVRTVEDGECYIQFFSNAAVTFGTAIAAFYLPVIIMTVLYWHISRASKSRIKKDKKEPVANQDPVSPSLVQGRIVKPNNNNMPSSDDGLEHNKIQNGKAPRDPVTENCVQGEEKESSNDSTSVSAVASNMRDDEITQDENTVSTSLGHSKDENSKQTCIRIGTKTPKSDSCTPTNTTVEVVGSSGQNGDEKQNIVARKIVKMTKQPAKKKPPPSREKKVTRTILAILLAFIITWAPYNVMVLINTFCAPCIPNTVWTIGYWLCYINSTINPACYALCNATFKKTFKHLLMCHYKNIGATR
Chain of Histamine H3 receptor (Homo sapiens) (Q9Y5N1 whole entry): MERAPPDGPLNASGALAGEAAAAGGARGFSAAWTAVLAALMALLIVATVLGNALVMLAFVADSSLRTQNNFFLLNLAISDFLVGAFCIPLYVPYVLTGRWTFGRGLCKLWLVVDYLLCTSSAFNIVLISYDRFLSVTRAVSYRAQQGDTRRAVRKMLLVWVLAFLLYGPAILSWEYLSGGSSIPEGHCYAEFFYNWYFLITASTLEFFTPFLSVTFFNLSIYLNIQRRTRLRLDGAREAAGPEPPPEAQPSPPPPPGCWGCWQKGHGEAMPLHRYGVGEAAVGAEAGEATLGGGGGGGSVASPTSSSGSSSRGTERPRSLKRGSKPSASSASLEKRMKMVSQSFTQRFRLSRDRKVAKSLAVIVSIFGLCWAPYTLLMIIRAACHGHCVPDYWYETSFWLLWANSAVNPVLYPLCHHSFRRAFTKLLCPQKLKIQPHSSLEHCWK
Chain of Alpha-2B adrenergic receptor (Homo sapiens) (P18089 whole entry): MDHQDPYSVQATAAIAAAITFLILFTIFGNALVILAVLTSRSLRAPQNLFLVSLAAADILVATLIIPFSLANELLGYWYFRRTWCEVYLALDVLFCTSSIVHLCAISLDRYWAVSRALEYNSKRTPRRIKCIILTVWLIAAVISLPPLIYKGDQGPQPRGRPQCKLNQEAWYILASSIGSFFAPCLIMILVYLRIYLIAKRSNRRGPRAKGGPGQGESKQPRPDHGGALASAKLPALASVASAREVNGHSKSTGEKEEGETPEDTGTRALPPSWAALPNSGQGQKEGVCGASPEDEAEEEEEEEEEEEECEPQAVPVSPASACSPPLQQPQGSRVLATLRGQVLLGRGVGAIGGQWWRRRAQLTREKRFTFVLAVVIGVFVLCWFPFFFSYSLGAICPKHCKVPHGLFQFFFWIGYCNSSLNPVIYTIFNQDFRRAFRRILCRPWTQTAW
Chain of Mu-type opioid receptor (P35372 whole entry): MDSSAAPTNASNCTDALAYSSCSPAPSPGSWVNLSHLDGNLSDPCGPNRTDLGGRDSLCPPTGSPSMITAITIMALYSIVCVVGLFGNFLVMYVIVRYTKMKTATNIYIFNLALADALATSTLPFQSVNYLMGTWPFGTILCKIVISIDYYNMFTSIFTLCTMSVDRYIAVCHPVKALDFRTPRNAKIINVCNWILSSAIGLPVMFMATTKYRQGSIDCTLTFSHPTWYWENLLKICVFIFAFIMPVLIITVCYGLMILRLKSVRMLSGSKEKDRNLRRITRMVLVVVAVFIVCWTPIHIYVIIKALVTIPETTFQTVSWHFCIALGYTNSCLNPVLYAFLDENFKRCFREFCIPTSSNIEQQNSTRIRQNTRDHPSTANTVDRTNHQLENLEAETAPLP

Regarding `CCCc1c(OCCCOc2ccc(OCC(=O)O)cc2)ccc(C(C)=O)c1O`, the Fold activation came to 1.36 in [1], 1.1 in test [2], 1.22 in test [3] and 1.34 in test [5]. Besides, the Remaining activity in test [4] was 0.985. The molecule further returned a P-value in test [6] of 1.09e-07. In test [7], this molecule came in with a Relative activation of 1.18%.

Consider `Cc1cc(C)c(S(=O)(=O)N(Cc2ccc(-c3cccc(S(C)(=O)=O)c3)cc2)Cc2ccc(C(F)(F)F)o2)c(C)c1`, for which the Fold activation in test [8] turned out to be 1.06; in [9] it was 1.28; in test [12], 1.26; in [14] it was 1.29. In addition, the Remaining activity in [10] is 0.982. Also, the P-value in test [11] is 0.011. The same molecule gave a Relative activation in test [13] of 0.984%.

For `COc1cc(OC)cc(-c2noc(N3CCN(C)C4(CCN(c5ccnc(C)c5)CC4)C3)n2)c1`, the Inhibition of control (in [15]; on Mu-type opioid receptor; in test [16]; in test [17]) was over 50% throughout.

For the molecule `CN(CCOc1ccc(CC2SC(=O)NC2=O)cc1)c1ccccn1` (configuration not stated), the Fold activation in test [18] stood at 1.05; in test [21], 1.17; in test [22] it was 1.09; in test [24], 1.08. For the same molecule, in [19], the Remaining activity worked out at 0.964. In [20], this molecule showed a P-value of 2.07e-12. The molecule also displayed a Relative activation in test [23] of 1.04%.

In the case of `CC(C)c1onc(-c2c(Cl)cccc2Cl)c1COc1ccc(/C=C/c2cccc(C(=O)O)c2)c(Cl)c1`, the Fold activation in test [25] was 1.12; in test [26], 1.24; in [27] it was 1.41; in [31], 1.33. Besides, the Relative activation in test [28] was found to be 0.803%. In test [29], this molecule had a Remaining activity of 0.927. The same molecule came in with a P-value in test [30] of 3.89e-13.
